Here are results for 4 molecules from patent US4670255A, “Hair tonic composition” (priority 1983, dated 1987).

Molecules are shown by their SMILES.

In this experiment the test system is testosterone 5α-reductase. Briefly: Determination of 5α-reductase inhibitory activity (labelled testosterone conversion). In kind it is biochemical, rats. How it is done: Prostate gland cells of rats were crushed and a specimen of testosterone 5α-reductase was then prepared by separating microsome from the crushed liquid mixture. The conversion of testosterone to 5α-dihydrotestosterone by the use of the above-prepared enzyme specimen was monitored by radioisotopically labelled testosterone. The reaction mixture was extracted with ethyl acetate and the extract was developed twice by silica gel thin layer chromatography (solvent system, dichloromethane:cyclohexane:acetone=15:4:1). The amount of 5α-dihydrotestosterone were determined from the intensities of the radioactivity.
A 30 μl amount of a 0.05M phosphate buffer (pH=6.6) containing 0.1% of BSA (bovine serum albumin), 10 μl of an enzyme specimen, 8.5 pmol of labelled testosterone, 50 nmol of a reduced form of NADP (nicotinamide adenine dinucleotide phosphate), and 10 μl of a test sample were mixed (total amount=50 μl). The mixture was allowed to react at a temperature of 25° C. for 60 minutes.
After the completion of the reaction, the reaction mixture was extracted with ethyl acetate by adding 50 μl of ethyl acetate to the reaction mixture. The extract was developed in the same manner as mentioned above and the intensity of the radioisotope was measured by using a scintillation counter.
The above-mentioned determination was applied to the samples having various concentrations. The 5α-reductase inhibitory activity was obtained as a inhibitory rate (%) or a 50% inhibitory concentration.

Consider `CCCCCCCC/C=C\CCCCCCCC(=O)O` [oleic acid], for which the “5α-reductase inhibitory activity (in words)” value is “especially strong”.

With `CCCCCCCCCCCCCCCC(=O)O` [palmitic acid], the “5α-reductase inhibitory activity (in words)” value is “especially strong”.

For the molecule `CCCCC/C=C\C/C=C\CCCCCCCC(=O)O` [linolic acid], the “5α-reductase inhibitory activity (in words)” value is reported as “especially strong”.

Consider `CCCCCC/C=C\CCCCCCCC(=O)O` [palmitoleic acid], for which the “5α-reductase inhibitory activity (in words)” value is “especially strong”.
